Data on 57 compounds can be found in the Kinase Knowledgebase extract (Sharma et al. 2016).

Molecules are shown by their SMILES. Some results are limits rather than exact numbers.

The target of this test is MAPK14 (human) (UniProt Q16539). As to the kind of experiment: Enzyme Assay.
Chain of MAPK14 (human) (Q16539 whole entry, looked up): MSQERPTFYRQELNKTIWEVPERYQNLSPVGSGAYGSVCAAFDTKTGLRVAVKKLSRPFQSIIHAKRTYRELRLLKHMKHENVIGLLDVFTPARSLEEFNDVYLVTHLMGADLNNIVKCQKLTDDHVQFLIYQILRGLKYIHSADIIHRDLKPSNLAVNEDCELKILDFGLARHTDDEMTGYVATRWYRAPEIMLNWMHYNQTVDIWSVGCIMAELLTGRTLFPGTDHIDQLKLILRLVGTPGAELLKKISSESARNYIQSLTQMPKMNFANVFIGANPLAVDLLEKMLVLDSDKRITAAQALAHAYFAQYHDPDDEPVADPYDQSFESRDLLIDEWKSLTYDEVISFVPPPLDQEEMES
A word on the IC50: it is the midpoint of a concentration-inhibition curve. In the case of `CN1CCN(Cc2cccc(-n3nc(C(C)(C)C)cc3NC(=O)N[C@H]3CC[C@@H](Oc4ccc5nnc(N6CCCCC6)n5c4)c4ccccc43)c2)CC1`, the IC50 was under 10 nM.
The compound `Cc1ccc(-n2nc(C(C)(C)C)cc2NC(=O)N[C@H]2CC[C@@H](OCCN3CCOCC3)c3ccccc32)cc1` had a half-inhibitory concentration (IC50) of 100 to 500 nM.
For `Cc1ccc(-c2nc(C(C)(C)C)[nH]c2NC(=O)N[C@H]2CC[C@@H](Oc3ccc4nnc(N5CCCCC5)n4c3)c3ccccc32)cc1` the value was under 10 nM; for `C[C@H]1COCCN1c1nnc2ccc(O[C@@H]3CC[C@H](NC(=O)Nc4cc(C(C)(C)C)nn4CCN4CCOCC4)c4ccccc43)cn12`, under 10 nM.
`Cc1ccc(-n2nc(C(C)(C)C)cc2NC(=O)N[C@H]2CC[C@@H](Oc3ccc4nnc(N(C)CCN(C)C)n4c3)c3ccccc32)cc1`: the IC50 was under 10 nM.
The compound `Cc1ccc(-n2nc(C(C)(C)C)cc2NC(=O)N[C@H]2CC[C@@H](Oc3ccc4nnc(C(C)(C)N(C)C)n4c3)c3ccccc32)cc1` came in with an IC50 of under 10 nM.
Regarding `C[C@@H]1CCC[C@H](C)N1c1nnc2ccc(O[C@@H]3CC[C@H](NC(=O)Nc4cc(C(C)(C)C)nn4-c4cccc(CN5CCN(C)CC5)c4)c4ccccc43)cn12`, the IC50 was under 10 nM.
Compound `C[C@H]1CCCCN1c1nnc2ccc(O[C@@H]3CC[C@H](NC(=O)Nc4cc(C(C)(C)C)nn4CCN4CCOCC4)c4ccccc43)cn12` came in with a half-maximal inhibitory concentration (IC50) of under 10 nM.
`Cc1ccc(-n2nc(C(C)(C)C)cc2NC(=O)N[C@H]2CC[C@@H](Oc3ccc4nnc(N5CCC(O)CC5)n4c3)c3ccccc32)cc1` had an IC50 of under 10 nM.
`CN(C)CCOc1cccc(-n2nc(C(C)(C)C)cc2NC(=O)N[C@H]2CC[C@@H](Oc3ccc4nnc(N5CCCCC5)n4c3)c3ccccc32)c1` came in with a concentration for half-maximal inhibition (IC50) of under 10 nM.
`Cc1ccc(-n2nc(C(C)(C)C)cc2NC(=O)N[C@H]2CC[C@@H](Oc3ccc4nnc(N5[C@H](C)CCC[C@@H]5C)n4c3)c3ccccc32)cc1` had an IC50 of under 10 nM.
Compound `CCN(CC)CCOc1cccc(-n2nc(C(C)(C)C)cc2NC(=O)N[C@H]2CC[C@@H](Oc3ccc4nnc(N5CCCC[C@@H]5C)n4c3)c3ccccc32)c1` had an IC50 of under 10 nM.
The compound `Cc1ccc(-n2nc(C(C)(C)C)cc2NC(=O)N[C@H]2CC[C@@H](Oc3ccc4cnn(CCO)c4c3)c3ccccc32)cc1` yielded a concentration for half-maximal inhibition (IC50) of under 10 nM.
For `Cc1ccc(-n2nc(C(C)(C)C)cc2NC(=O)N[C@H]2CC[C@@H](Oc3ccc(C#N)nc3)c3ccccc32)cc1`, the IC50 is under 10 nM.
As for `C[C@H]1CCCCN1c1nnc2ccc(O[C@@H]3CC[C@H](NC(=O)Nc4cc(C(C)(C)C)nn4-c4cccc(CN5CCOCC5)c4)c4ccccc43)cn12`, the IC50 was under 10 nM.
`C[C@H]1CCCCN1c1nnc2ccc(O[C@@H]3CC[C@H](NC(=O)Nc4cc(C(C)(C)C)nn4-c4cccc(CCN5CCCOCC5)c4)c4ccccc43)cn12` registered an IC50 of under 10 nM.
As to `COCC(=O)Nc1cc(O[C@@H]2CC[C@H](NC(=O)Nc3cc(C(C)(C)C)nn3-c3ccc(C)cc3)c3ccccc32)ccn1`, the concentration for half-maximal inhibition (IC50) is under 10 nM.
For the compound `C[C@@H]1CCC[C@H](C)N1c1nnc2ccc(O[C@@H]3CC[C@H](NC(=O)Nc4cc(C(C)(C)C)nn4-c4cnn(CCN(C)C)c4)c4ccccc43)cn12`, the IC50 was under 10 nM.
The compound `COc1c(NC(=O)N[C@H]2CC[C@@H](Oc3ccc4nnc([C@@H]5CCCN5C)n4c3)c3ccccc32)cc(C(C)(C)C)cc1NS(C)(=O)=O` came in with a concentration for half-maximal inhibition (IC50) of under 10 nM.
On to `C[C@H]1CCCCN1c1nnc2ccc(O[C@@H]3CC[C@H](NC(=O)Nc4cc(C(C)(C)C)nn4-c4ccc(CN5CCN(C)CC5)cc4)c4ccccc43)cn12`, for which the IC50 is under 10 nM.
With `Cc1ccc(-n2nc(C(C)(C)C)cc2NC(=O)N[C@H]2CC[C@@H](Oc3ccc4nnc(N5CC[C@H](O)C5)n4c3)c3ccccc32)cc1`, the IC50 was under 10 nM.
As to `CN1CCCC[C@H]1c1nnc2ccc(O[C@@H]3CC[C@H](NC(=O)Nc4cc(C(C)(C)C)nn4-c4ccc(CO)cc4)c4ccccc43)cn12`, the 50% inhibitory concentration (IC50) is under 10 nM.
In turn, `Cc1ccc(-n2nc(C(C)(C)C)cc2NC(=O)N[C@H]2CC[C@@H](Oc3ccc4nnc(N5CCCC5)n4c3)c3ccccc32)cc1` showed an IC50 of under 10 nM.
`CN(C)CCCn1cc(-n2nc(C(C)(C)C)cc2NC(=O)N[C@H]2CC[C@@H](Oc3ccc4nnc(N5CCCCC5)n4c3)c3ccccc32)cn1` gave an IC50 of under 10 nM.
Compound `C[C@@H]1CCC[C@H](C)N1c1nnc2ccc(O[C@@H]3CC[C@H](NC(=O)Nc4cc(C(C)(C)C)nn4-c4cccc(CN5CCOCC5)c4)c4ccccc43)cn12` showed an IC50 of under 10 nM.
The compound `Cc1ccc(-n2nc(C(C)(C)C)cc2NC(=O)N[C@H]2CC[C@@H](Oc3ccc4nnc([C@H]5CCCN5)n4c3)c3ccccc32)cc1` registered an IC50 of under 10 nM.
With `Cc1ccc(-n2nc(C(C)(C)C)cc2NC(=O)N[C@H]2CC[C@@H](Oc3ccc4nnc([C@@H]5CCCN(C)C5)n4c3)c3ccccc32)cc1`, the IC50 was under 10 nM.
`Cc1ccc(-n2nc(C(C)(C)C)cc2NC(=O)N[C@H]2CC[C@@H](Oc3ccc4nnc(N5CCC[C@@H]5CO)n4c3)c3ccccc32)cc1` yielded a concentration for half-maximal inhibition (IC50) of under 10 nM.
Take `CC(C)(C)c1cc(NC(=O)N[C@H]2CC[C@@H](Oc3ccc4nnc(N5CCCCC5)n4c3)c3ccccc32)n(-c2ccc(CO)cc2)n1`: the IC50 was under 10 nM.
Compound `C[C@H]1CCCCN1c1nnc2ccc(O[C@@H]3CC[C@H](NC(=O)Nc4cc(C(C)(C)C)nn4-c4ccc(CN5CCOCC5)cc4)c4ccccc43)cn12` returned a concentration for half-maximal inhibition (IC50) of under 10 nM.
The compound `C[C@H]1COCCN1c1nnc2ccc(O[C@@H]3CC[C@H](NC(=O)Nc4cc(C(C)(C)C)nn4CCO)c4ccccc43)cn12` came in with an IC50 of under 10 nM.
For the compound `Cc1ccc(-n2nc(C(C)(C)C)cc2NC(=O)N[C@H]2CC[C@H](Oc3ccc4nnc(N5CCCCC5)n4c3)c3ccccc32)cc1`, the concentration for half-maximal inhibition (IC50) is under 10 nM.
The value for `C[C@H]1CCCCN1c1nnc2ccc(O[C@@H]3CC[C@H](NC(=O)Nc4cc(C(C)(C)C)nn4CCN4CCCCC4)c4ccccc43)cn12` was under 10 nM; that for `C[C@@H]1CCC[C@H](C)N1c1nnc2ccc(O[C@@H]3CC[C@H](NC(=O)Nc4cc(C(C)(C)C)nn4-c4cnn(CCN5CCOCC5)c4)c4ccccc43)cn12` was under 10 nM.
For `C[C@@H]1CCC[C@H](C)N1c1nnc2ccc(O[C@@H]3CC[C@H](NC(=O)Nc4cc(C(C)(C)C)nn4-c4cccc(OCCN(C)C)c4)c4ccccc43)cn12` the value was under 10 nM.
As for `CC(C)(C)c1cc(NC(=O)N[C@H]2CC[C@@H](Oc3ccc4nnc(N5CCCCC5)n4c3)c3ccccc32)n(-c2cccc(SCCO)c2)n1`, the IC50 is under 10 nM.
For the compound `Cc1ccc(-n2nc(C(C)(C)C)cc2NC(=O)N[C@H]2CC[C@@H](Oc3ccc4nnc(N5CCCOCC5)n4c3)c3ccccc32)cc1`, the IC50 was under 10 nM.
In the case of `COCCN(C)Cc1ccc(-n2nc(C(C)(C)C)cc2NC(=O)N[C@H]2CC[C@@H](Oc3ccc4nnc(N5CCCC[C@@H]5C)n4c3)c3ccccc32)cc1`, the 50% inhibitory concentration (IC50) was under 10 nM.
Regarding `COc1c(NC(=O)N[C@H]2CC[C@@H](Oc3ccc4nnc(N5CCCCC5)n4c3)c3ccccc32)cc(C(C)(C)C)cc1NS(C)(=O)=O`, the IC50 was under 10 nM.
`Cc1ccc(-n2nc(C(C)(C)C)cc2NC(=O)N[C@H]2CC[C@H](Oc3ccc4nnc([C@@H]5CCCN5C)n4c3)c3ccccc32)cc1` returned a half-inhibitory concentration (IC50) of under 10 nM.
The value for `CC(C)(C)c1cc(NC(=O)N[C@H]2CC[C@@H](Oc3ccc4nnc(N5CCCCC5)n4c3)c3ccccc32)n(-c2cccc(OCCO)c2)n1` was under 10 nM; that for `C[C@H]1CCCCN1c1nnc2ccc(O[C@@H]3CC[C@H](NC(=O)Nc4cc(C(C)(C)C)nn4-c4cccc(CCN(C)C)c4)c4ccccc43)cn12` was under 10 nM; that for `CN(C)CCOc1cccc(-n2nc(C(C)(C)C)cc2NC(=O)N[C@H]2CC[C@@H](Oc3ccc4nnc(N5CCCCC56CC6)n4c3)c3ccccc32)c1` was under 10 nM.
For `CN1CCC[C@H]1c1nnc2ccc(O[C@H]3C[C@H](NC(=O)Nc4cc(C(C)(C)C)nn4-c4ccc(CO)cc4)c4ccccc43)cn12` the value was under 10 nM; for `Cc1ccc(-n2nc(C(C)(C)C)cc2NC(=O)N[C@H]2CC[C@@H](Oc3ccc4nnc(N5CCC[C@H](CO)C5)n4c3)c3ccccc32)cc1`, under 10 nM; for `Cc1ccc(-n2nc(C(C)(C)C)cc2NC(=O)N[C@H]2CC[C@@H](Oc3ccc4nnc([C@@H]5CCCN5)n4c3)c3ccccc32)cc1`, under 10 nM.
The compound `C[C@H]1CCCCN1c1nnc2ccc(O[C@@H]3CC[C@H](NC(=O)Nc4cc(C(C)(C)C)nn4-c4cccc(OCCN5CCCCC5)c4)c4ccccc43)cn12` yielded an IC50 of under 10 nM.
For `Cc1ccc(-n2nc(C(C)(C)C)cc2NC(=O)N[C@H]2CC[C@@H](Oc3ccc4nnc([C@@H](C)N5CCOCC5)n4c3)c3ccccc32)cc1.Cc1ccc(-n2nc(C(C)(C)C)cc2NC(=O)N[C@H]2CC[C@@H](Oc3ccc4nnc([C@H](C)N5CCOCC5)n4c3)c3ccccc32)cc1` the value was under 10 nM; for `C[C@H]1CCCCN1c1nnc2ccc(O[C@@H]3CC[C@H](NC(=O)Nc4cc(C(C)(C)C)nn4CCN(C)C)c4ccccc43)cn12`, under 10 nM; for `Cc1ccc(-n2nc(C(C)(C)C)cc2NC(=O)N[C@H]2CC[C@@H](Oc3ccc4nnc([C@H]5CCCN(C)C5)n4c3)c3ccccc32)cc1`, under 10 nM.
`CC(C)(C)c1cc(NC(=O)N[C@H]2CC[C@@H](Oc3ccc4nnc(N5CCC(CO)CC5)n4c3)c3ccccc32)n(-c2ccc(CO)cc2)n1` showed an IC50 of under 10 nM.
Compound `C[C@H]1CCCCN1c1nnc2ccc(O[C@@H]3CC[C@H](NC(=O)Nc4cc(C(C)(C)C)nn4-c4cccc(OCCN5CCCN(C)CC5)c4)c4ccccc43)cn12` registered a 50% inhibitory concentration (IC50) of under 10 nM.
Compound `CC(C)(C)c1cc(NC(=O)N[C@H]2CC[C@@H](Oc3ccc4nnc(N5CCCCC5)n4c3)c3ccccc32)n(-c2ccc(O)cc2)n1` showed a half-inhibitory concentration (IC50) of under 10 nM.
Regarding `CN1CCC[C@H]1c1nnc2ccc(O[C@@H]3CC[C@H](NC(=O)Nc4cc(C(C)(C)C)nn4-c4ccc(O)cc4)c4ccccc43)cn12`, the IC50 is under 10 nM.
Compound `Cc1ccc(-n2nc(C(C)(C)C)cc2NC(=O)N[C@H]2CC[C@@H](Oc3ccc4nnc([C@@H]5CCCN5C(C)C)n4c3)c3ccccc32)cc1` showed a concentration for half-maximal inhibition (IC50) of under 10 nM.
In the case of `Cc1ccc(-n2nc(C(C)(C)C)cc2NC(=O)N[C@H]2CC[C@@H](Oc3ccc4nnc(N5CCCN(C)CC5)n4c3)c3ccccc32)cc1`, the IC50 was under 10 nM.
`CC(C)(C)c1cc(NC(=O)N[C@H]2CC[C@@H](Oc3ccc4nnc(N5CCCCC5)n4c3)c3ccccc32)n(-c2cccc(CO)c2)n1` showed a concentration for half-maximal inhibition (IC50) of under 10 nM.
